# According to paper PMC9112662, “Scaffold stability and P14′ residue steric hindrance in the differential inhibition of FXIIa by Aedes aegypti trypsin inhibitor versus Infestin-4” (Bioscience Reports, 2022):
# Positions of bridges follow the written chain, without caps; N, C: chain ends. No end group written: not given here.
# Assays:
# FXIIa [1] = molecular target: T1, FXIIa (Homo sapiens, UniProt P00748); details: n = 3; read-out: IC50 values toward FXIIa
# T1 construct: gene F12; human FXIIa (Merck)
# T1 sequence (P00748 373-615): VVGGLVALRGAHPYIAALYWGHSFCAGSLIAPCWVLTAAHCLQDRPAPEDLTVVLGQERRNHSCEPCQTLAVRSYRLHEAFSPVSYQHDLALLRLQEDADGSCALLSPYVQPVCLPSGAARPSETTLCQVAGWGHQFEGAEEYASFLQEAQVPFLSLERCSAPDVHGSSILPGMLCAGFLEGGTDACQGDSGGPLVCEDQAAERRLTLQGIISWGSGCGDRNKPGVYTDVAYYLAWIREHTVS
# Protocol: For IC50 determination, FXIIa was pre-incubated with different concentrations of inhibitors. The generation of p-nitroaniline (pNA) was determined by measuring the absorbance at 405 nm using a absorbance plate reader (Tecan; Männedorf, Switzerland). The reaction mixture consisted of 40 µl FXIIa (10 nM), 40 µl inhibitor, and 40 µl chromogenic substrate (1 mM). All reaction components were prepared in 50 mM Tris pH 7.4 containing 100 mM NaCl.
# For IC50 calculations, log[inhibitor concentration] vs. percentage normalized inhibition was plotted using a non-linear regression curve function, created with Kaleidagraph 4.5.2 (Synergy Software; Reading, PA). All data represent the mean ± SD for triplicate values.
# [2] = molecular target: human Factor XIIa (human) (UniProt P00748)
# plasmin = details: cited from earlier work
# thrombin = details: cited from earlier work
# From the text: The Kazal-type inhibitor, Aedes aegypti trypsin inhibitor (AaTI), is a novel trypsin Kazal-type inhibitor from Aedes aegypti, the primary vector of mosquito-borne diseases like dengue. […] AaTI has a similar structure to that of Inf4 [19], and with only a 3-residue difference in the reactive-site loop sequence. The reactive-site loop sequence makes most-if not all-of the direct contacts with the protease and is thought to be the sole factor that govern the inhibitor specificity.
# FXIIa [3] = details: cited from earlier work
Substance,IC50 (FXIIa [1]) [nM],"IC50 of inhibition of FXIIa activity, chromogenic assay (substrate S-2302) [2] [nM]",also measured
AaTI with C1C3 and C5C6 regions of Inf4 (His-tagged) [AaTI_Inf4 C1C3+C5C6],113 ± 16.7,,
Inf4_N12I (domain or fragment),,8.4,
"Aedes aegypti trypsin inhibitor, RSDAERGVCACPRIYMPVCGSNLKTYNNDCLLRCEINSDLGRANNLRKIADQACDNLTDNVNDFIPQEY (His-tagged) [Wild-type AaTI]",> 10000,,Ki (plasmin): 3.8 nM; Ki (thrombin): 320 nM
AaTI with C1C3 region of Inf4 (His-tagged) [AaTI_Inf4 C1C3],4680 ± 3830,,
"KEVRNPCACFRNYVPVCGSDGKTYGNPCMLNCAAQTKVPGLKLVHEGRCQRSNVEQF (disulfide 7-32, 9-28, 17-49) [Wild-type Inf4]",,,Ki (FXIIa [3]): 0.128 nM; Ki (plasmin): 2.1 nM
AaTI with C1C3 and C3C4 regions of Inf4 (His-tagged) [AaTI_Inf4 C1C3+C3C4],147 ± 42.9,,
Inf4_V14M (domain or fragment),,9.9,
AaTI with C1C3 and C5C6 regions of Inf4 and N27G (His-tagged) [AaTI_Inf4 C1C3+C5C6+N27G],11.4 ± 3.1,,

# The next lines start with results.
IC50 (FXIIa [1]) [nM],"IC50 of inhibition of FXIIa activity, chromogenic assay (substrate S-2302) [2] [nM]",Substance,also measured
6.2 ± 0.8,,Inf4 with C6 region replaced with that of AaTI (His-tagged) [Inf4_AaTI C6],
,11.6,Inf4_F10P (domain or fragment),
58 ± 14.8,,AaTI with C1C3 region of Inf4 and N27G (His-tagged) [AaTI_Inf4 C1C3+N27G],
,3.1,Wild-type Infestin-4 (domain or fragment),
610 ± 206,,AaTI with C1C3 region of Inf4 and F10A (His-tagged) [AaTI_Inf4 C1C3+F10A],
